The values below come from patent US20250339494A1, “COMPOUNDS INDUCING PRODUCTION OF PROTEINS BY IMMUNE CELLS” (UNIVERSITE PARIS CITE, priority 2022, published 2025).

The test system of this assay is Human B cells. The assay is described as follows: IL-10 induction in human B cells cultivated 2 days with anti-IgM plus CpG; IL-10 measured in cell culture supernatants. In kind it is cell-based. To be noted: 2 consecutive days, molecule at 0.25 μM final concentration, culture supernatant. How it is done:
Human B cells isolated magnetically through negative selection (B Cell Isolation Kit II, human, Miltenyi ref: 130-091-151) were cultivated for 2 consecutive days in the presence of anti-IgM plus CpG in the presence of the indicated molecule (see table 3) at 0.25 μM final concentration. IL-10 was measured in cell culture supernatants.
Human B cells isolated magnetically through negative selection (B Cell Isolation Kit II, human, Miltenyi ref: 130-091-151) were cultivated for 2 consecutive days in the presence of anti-IgM plus CpG in the presence of DMSO (as control) or in the presence of the indicated molecule (as identified in the attached excel file) at 0.25 microM final concentration. IL-10 was measured in cell culture supernatants. NS: non stimulated B cell culture condition.

Take “2-methoxy-N-(1-methyl-2-(pyridin-3-yl)-1H-imidazo[4,5-b]pyridin-5-yl)benzamide + 2-methoxy-N-(3-methyl-2-(pyridin-3-yl)-3H-imidazo[4,5-b]pyridin-5-yl)benzamide [Compound 131]”: the “IL-10 Induction Mean (pg/mL) human” value came to 1.85 pg/mL.
